Measured values taken from patent US20040259913A1, “Diamide invertebrate pest control agents” (priority 2002, published 2004).

System: beet armyworm (Spodoptera exigua)
Assay: Test C: control of beet armyworm on corn (maize) plant, foliar spray
Type: in vivo
Conditions: sprayed at 50 ppm; corn (maize) plant pre-infested with 10-15 1-day-old larvae; visually rated as in Test A
Protocol: Test compounds were formulated using a solution containing 10% acetone, 90% water and 300 ppm X-77® Spreader Lo-Foam Formula non-ionic surfactant containing alkylarylpolyoxyethylene, free fatty acids, glycols and isopropanol (Loveland Industries, Inc.), unless otherwise indicated. The formulated compounds were applied in 1 mL of liquid through a SUJ2 atomizer nozzle with ⅛ JJ custom body (Spraying Systems Co,) positioned 1.27 cm (0.5 inches) above the top of each test unit. All experimental compounds in this screen were sprayed at 250 ppm and replicated three times. After spraying of the formulated test compound, each test unit was allowed to dry for 1 hour and then a black, screened cap was placed on top. The test units were held for 6 days in a growth chamber at 25° C. and 70% relative humidity. Plant feeding damage was then visually assessed. For evaluating control of beet armyworm (Spodoptera exigua) the test unit consisted of a small open container with a 4-5-day-old corn (maize) plant inside. This was pre-infested with 10-15 1-day-old larvae on a piece of insect diet by use of a core sampler as described for Test A. Test compounds were formulated and sprayed at 50 ppm as described for Test A. The applications were replicated three times. After spraying, the test units were maintained in a growth chamber and then visually rated as described for Test A.

CC1=C(NC(=O)c2cc(C(F)(F)F)nn2-c2ncccc2Cl)C(C(=O)NC(C)C)CS1 (stereo not shown) [Compound 1, 1-(3-Chloro-2-pyridinyl)-N-[4,5-dihydro-2-methyl-4-[[(1-methylethyl)amino]carbonyl]-3-thienyl]-3-(trifluoromethyl)-1H-pyrazole-5-carboxamide]
feeding damage (very good levels of plant protection): ≤ 20%
